{"source": "patent US8178699B2", "about": "“Modulators of CCR9 receptor and methods of use thereof” (Pfizer Inc., priority 2008, dated 2012)", "target": "T1, human CCR9 receptor (Homo sapiens, UniProt P51686)", "T1 construct": "expressed in transfected cells", "T1 sequence (P51686 1-369)": "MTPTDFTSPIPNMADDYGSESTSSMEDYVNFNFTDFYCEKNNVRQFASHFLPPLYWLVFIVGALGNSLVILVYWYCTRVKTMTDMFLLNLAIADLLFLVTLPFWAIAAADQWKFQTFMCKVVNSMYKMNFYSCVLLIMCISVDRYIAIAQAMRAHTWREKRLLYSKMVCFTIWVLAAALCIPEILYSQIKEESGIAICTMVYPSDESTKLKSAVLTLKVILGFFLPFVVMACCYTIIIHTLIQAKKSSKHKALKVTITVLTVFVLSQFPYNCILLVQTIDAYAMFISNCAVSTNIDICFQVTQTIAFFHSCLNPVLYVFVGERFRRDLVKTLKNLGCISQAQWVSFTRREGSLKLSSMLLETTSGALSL", "experiment": "CCR9 FLIPR/FlexStation Assay (inhibition of TECK induced calcium mobilization)", "format": "cell-based", "conditions": "CCR9 antagonist activity; TECK induced calcium mobilization in CCR9-Flp-CHO cells stably over expressing human CCR9; rhTECK at EC70; read-out: Binding IC50", "text": "Exemplary methods are described in US Publication Nos. US2004/0180892 and US2005/0049286, which are incorporated herein by reference. An exemplary assay for determining CCR9 antagonist activity of the compounds provided herein is CCR9 FLIPR/FlexStation Assay. In certain embodiments, the following protocol is used for the assay:\nCCR9 FLIPR/FlexStation Assay Protocol\nCalcium assay in FLIPR/FlexStation determines inhibitors of TECK induced calcium mobilization in CCR9-Flp-CHO cells that stably over express human CCR9 receptor. CCR9-Flp-CHO cells are seeded at 25,000 cells/well in a clear bottom, black wall 96-well plate (Greiner #655090) one day prior to assay. Cells are grown in a tissue culture incubator at 37° C. with 5% CO2 for 18 to 24 hours.\nWash buffer and dye loading buffer are prepared fresh each time the assay is performed. Wash buffer is prepared according to the following protocol: 20 ml 10×HBSS (Invitrogen Gibco #14065-056), 4 ml 1M HEPES (Sigma H3784), 174 ml sterile deionized water; then add 140 mg probenecid (Sigma P8761) dissolved in 2 ml 1M NaOH (Fisher S318) to solution and pH to 7.4. This wash buffer contains 1×HBSS, 20 mM HEPES and 2.5 mM probenecid. For one 96-well plate, dye loading buffer is prepared as following: 11 ml wash buffer, 44 μl Fluo-4/pluoronic acid mix (prepared from 22 μL aliquot of 2 mM Fluo-4 (Molecular Probes F14202, 1 mg/tube)+22 μl 20% pluronic F-127 (Molecular Probes P3000MP).\nCells are loaded with dye according to the protocol below:\n1. Prepare wash buffer with 1×HBSS/HEPES at room temperature\n2. Prepare loading buffer (keep in dark)\n3. Aspirate culture media and wash with 100 μl wash buffer per well×1\n4. Add 100 μl dye loading buffer to each well\n5. Incubate at 37° C. for 30 minutes\n6. Aspirate loading buffer\n7. Wash with 100 μl wash buffer per well×3\n8. Add 100 μl wash buffer per well\n9. Incubate at 37° C. for 30 minutes\n10. Assay plate with FLIPR or FlexStation\n10 mM stock compounds in DMSO are prepared and diluted in DMSO to 1 mM. Compounds are diluted in wash buffer to make 8 point series dilutions containing same final concentration of DMSO (1%). Compounds are tested in duplicate wells for each point. Ligand rhTECK (R&D Systems 334-TK) was diluted to 6× of its EC70 with wash buffer. Appropriate amount of 6× ligand is added to each well. Data is analyzed using XLfit3 software to calculate IC50 value of antagonist activity for each compound.\nCCR9 antagonist activity of exemplary compounds was determined using CCR9 FLIPR/FlexStation Assay as described in Section 4.4 and is provided in Table 1 below. The IC50 for the compounds are represented as follows: A≦100 nM; B>100-500 nM; C>500 nM.", "note": "Structures can show the parent of a compound that is named as a salt.", "data": [{"smiles": "COc1cc(S(=O)(=O)Nc2ccsc2C(=O)O)c(Cl)cc1F", "note": "[Example 63, 3-(2-chloro-4-fluoro-5-methoxyphenylsulfonamido)thiophene-2-carboxylic acid, disodium salt]", "values": [{"measurement": "IC50", "value": "> 500", "unit": "nM"}]}]}
